According to patent US9107928B2, “Compositions and methods for treating ophthalmic disorders” (Dyax Corp., priority 2006, dated 2015):
Where no end group is shown, it is not given here.

Key:
Format in all cases: in vivo
[1] = tested on: pig model of RVO (branch retinal vein occlusion); assay: Evans Blue dye retinal concentration (extra-cellular retinal oedema) in a pig model of RVO; details: 21.2 μg/eye intra-vitreally immediately following RVO, 24 h following RVO, p<0.01
Description: The amount of Evans Blue dye concentration into the retinal tissue reflects plasma extravasation and the extent of oedema. Control values represent retina Evans Blue Dye content of 2 eyes that were left non-operated and non-treated whilst sham-operated eyes (n=4) were submitted to the surgical procedure but without occlusion (See Methods). Values are mean±s.e.mean. Comparison of values was performed by a one-way ANOVA following by a student t-test. **, p<0.01
(§1) Mixed breed (Large White×Landrace×Pietrain) female pigs weighing 50 to 60 kg aged of 5 to 6 months were used. Following intramuscular injection of ketamine (10 mg/kg), azaperone (2 mg/kg) and atropine (0.02 mg/kg), anesthesia was induced by intravenous sodium thiopental (10 mg/kg). After tracheal intubation, anesthesia was maintained with isoflurane (1-2% in 100% O2) using a Hallowell ventilator (15 to 20 rpm; pressure at 20 cmH2O).
Pupil was dilated by tropicamide. […] Completion of the occlusion was assessed by the complete arrest of blood flow upstream of the occlusion site. […]
After OCT measurement, each animal received Evans Blue dye at 45 mg/kg i.v. and venous blood samples (approximately 1 ml) were obtained at 15 minutes intervals for 2 hours. […] Evans Blue dye concentration in plasma samples and in retina tissue was measured by spectrophotometry at both 620 nm and 740 nm.

[2] = tested on: pig model of RVO (branch retinal vein occlusion); assay: Spontaneous retinal vein reperfusion 24 h after RVO in the pig; details: 21.2 μg/eye intra-vitreally immediately following RVO
Description: as §1
(§2) Pupil was dilated by tropicamide. Conjunctival disinsertion was followed by a 0.9 mm sclerotomy, 3 mm from the limbus. The fundus was observed using a plano-concave lens and the axial light of the operating microscope (Microscope OPMI 6-C, Zeiss, Germany). Branch retinal vein occlusion (RVO) of the major temporal vein was performed by transvitreal cauterization using a 300 micron probe (GN 300, Aesculap, Tuttlingen, Germany). Completion of the occlusion was assessed by the complete arrest of blood flow upstream of the occlusion site. Both eyes were submitted to RVO.
Animals that were submitted to RVO were randomised to receive either the vehicle or the drug (10 to 14 pigs/group). Accordingly, 100 μl of SEQ ID No 23 in solution (dosage of 21.2 μg/eye) or of the corresponding vehicle (saline) was injected intra-vitreally, immediately following RVO.

[3] = tested on: pig model of RVO (branch retinal vein occlusion); assay: OCT-measured maximal retinal thickness in a pig model of RVO; details: 21.2 μg/eye intra-vitreally immediately following RVO, 24 h after RVO
Description: Maximal retina thickness was determined 24 h after RVO from Optical Coherence Tomography images. Values are mean±s.e.mean. Comparison of values was performed by a one-way ANOVA following by a student t-test.
as §1, §2
Animals that were submitted to RVO were randomised to receive either the vehicle or the drug (10 to 14 pigs/group). […]

For “EAMHSFCAFKADDGPCRAAHPRWFFNIFTRQCEEFIYGGCEGNQNRFESLEECKKMCTRD (cysteine pairing not given here) [SEQ ID No 23]”, the “Reduction of Evans Blue dye retinal concentration (extent of extra-cellular oedema)” value [1] was 47%, the “% of reperfused retinal vein at 24 h (spontaneous reperfusion, treated eyes)” value [2] was 30% and the “Number of reperfused retinal vein at 24 h” value ([2]; 13 pigs/26 eyes) was 8. The “Increase of maximal retinal thickness as measured by OCT” value [3] was “did not modify the increase of maximal retinal thickness”.
